ChEMBL document CHEMBL3751817, “Anti-HIV-1 activity of a tripodal receptor that recognizes mannose oligomers” (Eur J Med Chem, 2015)
Active and inactive are the calls of the source. The rule behind the calls is not given here.

Assays:
CCRF-CEM = assay: Cytotoxicity against human CD4+ T-lymphocyte CEM cells; assay type: cell-based
[1] = tested on: Human immunodeficiency virus 1; assay: Antiviral activity against HIV1 3B infected in human CD4+ T-lymphocyte CEM cells assessed as inhibition of virus-induced cytopathicity after 4 to 5 days by microscopic analysis; assay type: functional, organism-based; conditions: Human immunodeficiency virus 1, 3B, CCRF-CEM
[2] = tested on: Human immunodeficiency virus 2; assay: Antiviral activity against HIV2 ROD infected in human CD4+ T-lymphocyte CEM cells assessed as inhibition of virus-induced cytopathicity after 4 to 5 days by microscopic analysis; assay type: functional, organism-based; conditions: Human immunodeficiency virus 2, ISOLATE ROD, CCRF-CEM
[3] = tested on: Human immunodeficiency virus; assay: Inhibition of HIV integrase-mediated strand transfer activity using 5'-[gamma-32P]-labeled full length 21T DNA at 50 nM after 2 hrs
[4] = Inhibition of HIV integrase-mediated 3'-processing activity using 5'-[gamma-32P]-labeled full length 21T DNA after 2 hrs; parameters: species or system Human immunodeficiency virus
[5] = Inhibition of HIV integrase-mediated strand transfer activity using precleaved 19T duplex oligonucleotide after 2 hrs; parameters: species or system Human immunodeficiency virus
[6] = tested on: Human immunodeficiency virus 1; assay: Binding affinity to recombinant HIV1 3B glycoprotein-120 after 5 mins by sensorchip direct surface plasmon resonance assay
[7] = tested on: Human immunodeficiency virus 1; assay: Binding affinity to recombinant HIV1 3B glycoprotein-120 after 5 mins by sensorchip reverse surface plasmon resonance assay
[8] = tested on: Human immunodeficiency virus 1; assay: Binding affinity to recombinant HIV1 3B glycoprotein-120 at 5 uM after 5 mins by sensorchip direct surface plasmon resonance assay in presence of 100 and 400 uM mann (alpha-1,3-1,6)3
[9] = tested on: Human immunodeficiency virus 1; assay: Binding affinity to recombinant HIV1 3B glycoprotein-120 at 5 uM after 5 mins by sensorchip direct surface plasmon resonance assay in presence of 100 and 400 uM mann (alpha-1,2)3

With `CCc1c(CNC(=O)c2ccc(N)cc2)c(CC)c(CNC(=O)c2ccc(N)cc2)c(CC)c1CNC(=O)c1ccc(N)cc1` the CC50 (CCRF-CEM) was > 250 µM, the EC50 [1] was > 250 µM and the EC50 [2] was > 250 µM.
In the case of `C[C@@H]1CCO[C@H]2Cn3cc(C(=O)NCc4ccc(F)cc4F)c(=O)c(O)c3C(=O)N12`, the inhibition [3] is reported as > 50%.
For `CCc1c(CNC(=O)c2ccc(O)cc2O)c(CC)c(CNC(=O)c2ccc(O)cc2O)c(CC)c1CNC(=O)c1ccc(O)cc1O`, the CC50 (CCRF-CEM) was 28 µM, the EC50 [1] was > 4 µM and the EC50 [2] was > 4 µM.
With `CCc1c(CNC(=O)CCc2ccc(O)c(O)c2)c(CC)c(CNC(=O)CCc2ccc(O)c(O)c2)c(CC)c1CNC(=O)CCc1ccc(O)c(O)c1` the CC50 (CCRF-CEM) was 22 µM, the EC50 [1] was > 10 µM and the EC50 [2] was > 10 µM.
In the case of `CCc1c(CNC(=O)c2ccc(O)c(O)c2O)c(CC)c(CNC(=O)[C@H]2C[C@@H](C(=O)NCc3c(CC)c(CNC(=O)c4ccc(O)c(O)c4O)c(CC)c(CNC(=O)c4ccc(O)c(O)c4O)c3CC)C[C@@H](C(=O)NCc3c(CC)c(CNC(=O)c4ccc(O)c(O)c4O)c(CC)c(CNC(=O)c4ccc(O)c(O)c4O)c3CC)C2)c(CC)c1CNC(=O)c1ccc(O)c(O)c1O`, the CC50 (CCRF-CEM) is reported as 25 µM, the EC50 [1] is reported as > 10 µM and the EC50 [2] is reported as > 10 µM.
In the case of `CCc1c(CN2CCN(C(=O)c3ccc(O)c(O)c3O)CC2)c(CC)c(CN2CCN(C(=O)c3ccc(O)c(O)c3O)CC2)c(CC)c1CN1CCN(C(=O)c2ccc(O)c(O)c2O)CC1`, the IC50 [4] is reported as 42 µM, the IC50 [5] is reported as 5.6 µM and the CC50 (CCRF-CEM) is reported as 36 µM. The EC50 [1] was > 10 µM and the EC50 [2] was > 10 µM.
With `CCc1c(CNC(=O)c2cc(O)c(O)c(O)c2)c(CC)c(CNC(=O)c2cc(O)c(O)c(O)c2)c(CC)c1CNC(=O)c1cc(O)c(O)c(O)c1` the CC50 (CCRF-CEM) was 49 µM, the EC50 [1] was > 10 µM and the EC50 [2] was > 10 µM.
With `CN[C@@H]1[C@H](O[C@@H]2OC[C@@H](O)[C@H](O)[C@H]2O)[C@@H](O)[C@H](O[C@H]2c3cc(C)c(C(=O)N[C@H](C)C(=O)O)c(O)c3-c3c(cc4c(c3O)C(=O)c3cc(OC)cc(O)c3C4=O)[C@@H]2O)O[C@@H]1C` [PRADIMICIN A] the CC50 (CCRF-CEM) was > 50 µM and the EC50 [1] was 3.4 µM.
With `CN[C@H]1[C@@H](O[C@H]2O[C@@H](CO)[C@H](O)[C@@H](OS(=O)(=O)O)[C@@H]2O)[C@H](O)[C@@H](O[C@H]2c3cc(C)c(C(=O)N[C@H](C)C(=O)O)c(O)c3-c3c(cc4c(c3O)C(=O)c3cc(OC)cc(O)c3C4=O)[C@@H]2O)O[C@H]1C` the Activity [6] was “Active”.
In the case of `CCc1c(CNC(=O)c2ccc(N)nc2)c(CC)c(CNC(=O)c2ccc(N)nc2)c(CC)c1CNC(=O)c1ccc(N)nc1`, the CC50 (CCRF-CEM) is reported as > 250 µM, the EC50 [1] is reported as > 250 µM and the EC50 [2] is reported as > 250 µM.
In the case of `CCc1c(CNCCCCNC(=O)c2ccc(O)c(O)c2O)c(CC)c(CNCCCCNC(=O)c2ccc(O)c(O)c2O)c(CC)c1CNCCCCNC(=O)c1ccc(O)c(O)c1O`, the CC50 (CCRF-CEM) is reported as 25 µM, the EC50 [1] is reported as > 10 µM and the EC50 [2] is reported as > 10 µM.
For `CCc1c(CNC(=O)c2ccc[nH]2)c(CC)c(CNC(=O)c2ccc[nH]2)c(CC)c1CNC(=O)c1ccc[nH]1`, the CC50 (CCRF-CEM) was > 10 µM, the EC50 [1] was > 10 µM and the EC50 [2] was > 10 µM.
With `CCc1c(CNC(=O)CCC(=O)NCCCOCCOCCOCCCN)c(CC)c(CNC(=O)c2ccc(O)c(O)c2O)c(CC)c1CNC(=O)c1ccc(O)c(O)c1O` the Activity [7] was “Active”.
For `CCc1c(CNCCNC(=O)c2ccc(O)c(O)c2O)c(CC)c(CNCCNC(=O)c2ccc(O)c(O)c2O)c(CC)c1CNCCNC(=O)c1ccc(O)c(O)c1O`, the CC50 (CCRF-CEM) was 117 µM, the EC50 [1] was > 10 µM and the EC50 [2] was > 10 µM.
In the case of `CCc1c(CNC(=O)c2c(O)cc(O)cc2O)c(CC)c(CNC(=O)c2c(O)cc(O)cc2O)c(CC)c1CNC(=O)c1c(O)cc(O)cc1O`, the CC50 (CCRF-CEM) is reported as 112 µM, the EC50 [1] is reported as > 50 µM and the EC50 [2] is reported as > 50 µM.
With `CCc1c(CNC(=O)c2cccc(O)c2O)c(CC)c(CNC(=O)c2cccc(O)c2O)c(CC)c1CNC(=O)c1cccc(O)c1O` the CC50 (CCRF-CEM) was 5 µM, the EC50 [1] was > 2 µM and the EC50 [2] was > 2 µM.
In the case of `CCc1c(CNC(=O)C2C[C@H](O)C(O)[C@@H](O)C2)c(CC)c(CNC(=O)C2C[C@H](O)C(O)[C@@H](O)C2)c(CC)c1CNC(=O)C1C[C@H](O)C(O)[C@@H](O)C1` (some centres not stated), the CC50 (CCRF-CEM) is reported as > 250 µM, the EC50 [1] is reported as > 250 µM and the EC50 [2] is reported as > 250 µM.
In the case of `CCc1c(CNC(=O)c2ccc(O)c(O)c2O)c(CC)c(CNC(=O)c2ccc(O)c(O)c2O)c(CC)c1CNC(=O)c1ccc(O)c(O)c1O`, the Activity [8] is reported as “inactive”, the IC50 [4] is reported as 31 µM and the Activity [6] is reported as “Active”. For the same compound, the IC50 [5] was 10.9 µM, the CC50 (CCRF-CEM) was 144 µM and the EC50 [1] was 6.3 µM. For the same compound, the EC50 [2] was 41 µM and the Activity [9] was “inactive”.
With `CCc1c(CNC(=O)C2=C[C@H](O)[C@H](O)[C@@H](O)C2)c(CC)c(CNC(=O)C2=C[C@H](O)[C@H](O)[C@@H](O)C2)c(CC)c1CNC(=O)C1=C[C@H](O)[C@H](O)[C@@H](O)C1` the CC50 (CCRF-CEM) was > 250 µM, the EC50 [1] was > 250 µM and the EC50 [2] was > 250 µM.
